Measured values as given in paper PMC7180948, “New Insights into 4-Anilinoquinazolines as Inhibitors of Cardiac Troponin I–Interacting Kinase (TNNi3K)” (Molecules, 2020).

Assays:
Assay in all cases: biochemical
Parameters in all cases: KINOMEscan competition binding panel (Eurofins DiscoverX), single concentration, % inhibition
Settings in all cases: read-out: 7 at 1 µM % inhibition
ACVR2B = ACVR2B (Homo sapiens, UniProt Q13705)
Outline: (§1)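 Selectivity profile from a KINOMEscan run against >400 human kinases; test concentration 1 µM.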

AURKA = AURKA (Homo sapiens, UniProt O14965)
Outline: as §1

BLK = BLK (Homo sapiens, UniProt P51451)
Outline: as §1

CAMKK1 = CAMKK1 (Homo sapiens, UniProt Q8N5S9)
Outline: as §1

CLK2 = CLK2 (Homo sapiens, UniProt P49760)
Outline: as §1

DYRK1A = DYRK1A (Homo sapiens, UniProt Q13627)
Outline: as §1

EPHA8 = EPHA8 (Homo sapiens, UniProt P29322)
Outline: as §1

ERBB3 = ERBB3 (Homo sapiens, UniProt P21860)
Outline: as §1

GRK2 = GRK2 (Homo sapiens, UniProt P25098)
Outline: as §1

HIPK3 = HIPK3 (Homo sapiens, UniProt Q9H422)
Outline: as §1

INSR = INSR (Homo sapiens, UniProt P06213)
Outline: as §1

LTK = LTK (Homo sapiens, UniProt P29376)
Outline: as §1

LYN = LYN (Homo sapiens, UniProt P07948)
Outline: as §1

MRCKA = biological target: T1, MRCKA (Homo sapiens, UniProt Q5VT25)
T1 construct: gene CDC42BPA
Outline: as §1

NEK3 = NEK3 (Homo sapiens, UniProt P51956)
Outline: as §1

PDGFRA = PDGFRA (Homo sapiens, UniProt P16234)
Outline: as §1

PIK3CA(E545K) = PIK3CA(E545K) (Homo sapiens, UniProt P42336, E545K)
Outline: as §1

PIK3CG = PIK3CG (Homo sapiens, UniProt P48736)
Outline: as §1

PIK4CB = biological target: T2, PIK4CB (Homo sapiens, UniProt Q9UBF8)
T2 construct: gene PI4KB
Outline: as §1

PKMYT1 = PKMYT1 (Homo sapiens, UniProt Q99640)
Outline: as §1

PRKR = biological target: T3, PRKR (Homo sapiens, UniProt P19525)
T3 construct: gene EIF2AK2
Outline: as §1

RIOK2 = RIOK2 (Homo sapiens, UniProt Q9BVS4)
Outline: as §1

RIPK2 = RIPK2 (Homo sapiens, UniProt O43353)
Outline: as §1

SNARK = biological target: T4, SNARK (Homo sapiens, UniProt Q9H093)
T4 construct: gene NUAK2
Outline: as §1

TXK = TXK (Homo sapiens, UniProt P42681)
Outline: as §1

Sequence of RIOK2 (Q9BVS4 whole entry): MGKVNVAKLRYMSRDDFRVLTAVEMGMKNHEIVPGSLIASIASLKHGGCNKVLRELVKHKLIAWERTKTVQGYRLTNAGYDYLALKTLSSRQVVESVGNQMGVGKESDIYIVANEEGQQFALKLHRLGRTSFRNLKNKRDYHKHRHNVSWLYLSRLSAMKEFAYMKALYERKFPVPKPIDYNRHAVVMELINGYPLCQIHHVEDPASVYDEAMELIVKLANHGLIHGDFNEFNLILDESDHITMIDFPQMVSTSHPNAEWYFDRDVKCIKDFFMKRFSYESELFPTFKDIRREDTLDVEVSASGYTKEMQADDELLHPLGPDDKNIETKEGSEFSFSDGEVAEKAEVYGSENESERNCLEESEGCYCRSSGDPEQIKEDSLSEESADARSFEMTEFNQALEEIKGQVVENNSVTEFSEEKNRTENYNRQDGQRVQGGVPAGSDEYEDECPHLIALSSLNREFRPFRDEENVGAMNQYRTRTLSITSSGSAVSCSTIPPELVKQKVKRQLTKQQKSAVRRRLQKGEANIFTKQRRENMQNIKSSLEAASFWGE
Sequence of RIPK2 (O43353 whole entry): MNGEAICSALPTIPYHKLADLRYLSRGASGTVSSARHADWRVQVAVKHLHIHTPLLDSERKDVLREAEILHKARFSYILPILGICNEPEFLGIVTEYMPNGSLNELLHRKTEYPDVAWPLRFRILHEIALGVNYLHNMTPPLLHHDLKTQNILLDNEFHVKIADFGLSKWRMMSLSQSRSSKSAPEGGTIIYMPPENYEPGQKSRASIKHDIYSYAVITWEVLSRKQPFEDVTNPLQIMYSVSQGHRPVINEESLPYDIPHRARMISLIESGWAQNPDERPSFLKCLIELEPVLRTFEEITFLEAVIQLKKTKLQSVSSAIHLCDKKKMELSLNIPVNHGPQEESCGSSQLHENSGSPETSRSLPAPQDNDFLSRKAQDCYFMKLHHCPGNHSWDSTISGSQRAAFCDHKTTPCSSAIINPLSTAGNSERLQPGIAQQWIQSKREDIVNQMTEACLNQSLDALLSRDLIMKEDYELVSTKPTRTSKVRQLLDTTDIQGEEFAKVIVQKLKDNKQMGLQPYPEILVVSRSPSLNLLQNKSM
Sequence of AURKA (O14965 whole entry): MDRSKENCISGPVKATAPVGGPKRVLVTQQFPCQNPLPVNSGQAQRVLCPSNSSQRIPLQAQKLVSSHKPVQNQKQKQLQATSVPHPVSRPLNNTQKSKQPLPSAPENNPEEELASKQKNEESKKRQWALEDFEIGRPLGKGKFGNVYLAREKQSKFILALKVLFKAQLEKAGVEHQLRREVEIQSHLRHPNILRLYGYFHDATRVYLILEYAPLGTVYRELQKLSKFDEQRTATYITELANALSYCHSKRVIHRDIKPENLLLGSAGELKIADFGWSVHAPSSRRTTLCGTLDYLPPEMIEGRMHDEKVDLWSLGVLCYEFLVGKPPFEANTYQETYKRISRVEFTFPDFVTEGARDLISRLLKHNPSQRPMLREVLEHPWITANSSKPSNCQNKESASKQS
Sequence of PDGFRA (P16234 whole entry): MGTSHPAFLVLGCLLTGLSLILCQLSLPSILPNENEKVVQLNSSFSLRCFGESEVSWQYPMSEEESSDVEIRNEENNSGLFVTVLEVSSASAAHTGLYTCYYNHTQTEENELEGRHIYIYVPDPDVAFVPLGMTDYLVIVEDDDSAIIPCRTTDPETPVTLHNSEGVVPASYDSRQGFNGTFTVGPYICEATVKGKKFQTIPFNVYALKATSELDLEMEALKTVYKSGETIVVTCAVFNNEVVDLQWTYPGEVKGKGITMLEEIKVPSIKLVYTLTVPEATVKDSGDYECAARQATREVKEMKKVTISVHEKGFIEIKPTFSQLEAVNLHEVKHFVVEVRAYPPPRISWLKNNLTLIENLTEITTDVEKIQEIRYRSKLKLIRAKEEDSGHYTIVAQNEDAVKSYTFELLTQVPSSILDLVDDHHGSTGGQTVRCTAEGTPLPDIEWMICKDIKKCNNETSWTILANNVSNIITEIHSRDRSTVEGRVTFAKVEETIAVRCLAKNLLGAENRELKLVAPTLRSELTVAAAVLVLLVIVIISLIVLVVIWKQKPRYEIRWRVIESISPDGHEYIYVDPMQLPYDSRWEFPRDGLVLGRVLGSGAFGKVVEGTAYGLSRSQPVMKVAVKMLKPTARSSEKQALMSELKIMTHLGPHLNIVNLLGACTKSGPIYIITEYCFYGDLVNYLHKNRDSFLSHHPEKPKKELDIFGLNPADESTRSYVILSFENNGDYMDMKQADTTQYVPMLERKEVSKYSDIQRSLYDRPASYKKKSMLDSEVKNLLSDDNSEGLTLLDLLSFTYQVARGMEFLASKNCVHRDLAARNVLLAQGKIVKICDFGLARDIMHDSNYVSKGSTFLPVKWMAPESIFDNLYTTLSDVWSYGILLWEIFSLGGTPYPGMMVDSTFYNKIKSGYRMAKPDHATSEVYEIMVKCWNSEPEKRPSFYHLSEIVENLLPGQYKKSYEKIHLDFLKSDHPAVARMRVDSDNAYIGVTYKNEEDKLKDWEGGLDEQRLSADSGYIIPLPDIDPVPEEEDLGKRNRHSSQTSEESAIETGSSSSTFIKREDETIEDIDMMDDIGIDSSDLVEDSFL
Sequence of GRK2 (P25098 whole entry): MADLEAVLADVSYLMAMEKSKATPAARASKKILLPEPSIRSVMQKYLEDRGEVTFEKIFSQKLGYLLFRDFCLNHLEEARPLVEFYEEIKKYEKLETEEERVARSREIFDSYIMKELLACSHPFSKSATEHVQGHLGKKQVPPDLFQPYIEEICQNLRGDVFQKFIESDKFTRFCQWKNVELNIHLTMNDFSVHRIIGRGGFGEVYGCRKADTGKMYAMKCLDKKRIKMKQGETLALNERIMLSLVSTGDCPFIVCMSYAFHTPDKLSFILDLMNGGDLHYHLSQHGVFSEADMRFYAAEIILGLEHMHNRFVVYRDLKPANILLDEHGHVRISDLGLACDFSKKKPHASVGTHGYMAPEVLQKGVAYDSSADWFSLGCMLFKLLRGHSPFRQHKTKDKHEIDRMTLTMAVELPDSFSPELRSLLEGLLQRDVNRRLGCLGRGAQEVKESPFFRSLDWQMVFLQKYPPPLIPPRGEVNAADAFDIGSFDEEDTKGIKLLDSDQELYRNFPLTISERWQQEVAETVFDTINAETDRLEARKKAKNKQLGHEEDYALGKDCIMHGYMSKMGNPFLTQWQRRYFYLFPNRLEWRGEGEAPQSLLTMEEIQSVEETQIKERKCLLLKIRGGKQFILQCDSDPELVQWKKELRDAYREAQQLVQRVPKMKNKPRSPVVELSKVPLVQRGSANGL
Sequence of BLK (P51451 whole entry): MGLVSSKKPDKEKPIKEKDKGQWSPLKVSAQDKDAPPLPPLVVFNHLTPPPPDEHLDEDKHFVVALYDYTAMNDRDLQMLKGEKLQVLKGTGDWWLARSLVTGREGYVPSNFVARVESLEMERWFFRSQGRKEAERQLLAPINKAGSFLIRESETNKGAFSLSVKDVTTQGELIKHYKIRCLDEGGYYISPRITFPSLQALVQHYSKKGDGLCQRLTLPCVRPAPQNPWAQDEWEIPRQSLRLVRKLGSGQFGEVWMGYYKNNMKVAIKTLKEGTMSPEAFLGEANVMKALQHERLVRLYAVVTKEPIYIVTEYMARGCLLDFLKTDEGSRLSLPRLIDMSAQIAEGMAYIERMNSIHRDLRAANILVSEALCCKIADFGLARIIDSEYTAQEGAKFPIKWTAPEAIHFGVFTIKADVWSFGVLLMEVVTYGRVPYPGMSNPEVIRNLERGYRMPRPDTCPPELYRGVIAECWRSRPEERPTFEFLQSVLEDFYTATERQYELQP
T3 sequence (P19525 whole entry): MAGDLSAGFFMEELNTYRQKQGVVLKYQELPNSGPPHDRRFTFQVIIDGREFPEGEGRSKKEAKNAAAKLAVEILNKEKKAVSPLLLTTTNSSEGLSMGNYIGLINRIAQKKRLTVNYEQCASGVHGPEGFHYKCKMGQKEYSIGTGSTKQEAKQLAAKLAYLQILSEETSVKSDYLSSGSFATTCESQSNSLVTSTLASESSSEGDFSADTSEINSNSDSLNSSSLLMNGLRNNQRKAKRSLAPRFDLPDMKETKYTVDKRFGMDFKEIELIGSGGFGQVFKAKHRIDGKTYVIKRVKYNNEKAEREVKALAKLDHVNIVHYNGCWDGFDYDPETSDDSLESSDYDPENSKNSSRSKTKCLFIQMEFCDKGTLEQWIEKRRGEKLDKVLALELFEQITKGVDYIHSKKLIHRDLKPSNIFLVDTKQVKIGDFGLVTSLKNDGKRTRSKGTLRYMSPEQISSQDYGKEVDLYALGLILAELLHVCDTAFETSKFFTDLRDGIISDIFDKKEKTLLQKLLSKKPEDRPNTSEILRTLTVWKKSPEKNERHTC
Sequence of TXK (P42681 whole entry): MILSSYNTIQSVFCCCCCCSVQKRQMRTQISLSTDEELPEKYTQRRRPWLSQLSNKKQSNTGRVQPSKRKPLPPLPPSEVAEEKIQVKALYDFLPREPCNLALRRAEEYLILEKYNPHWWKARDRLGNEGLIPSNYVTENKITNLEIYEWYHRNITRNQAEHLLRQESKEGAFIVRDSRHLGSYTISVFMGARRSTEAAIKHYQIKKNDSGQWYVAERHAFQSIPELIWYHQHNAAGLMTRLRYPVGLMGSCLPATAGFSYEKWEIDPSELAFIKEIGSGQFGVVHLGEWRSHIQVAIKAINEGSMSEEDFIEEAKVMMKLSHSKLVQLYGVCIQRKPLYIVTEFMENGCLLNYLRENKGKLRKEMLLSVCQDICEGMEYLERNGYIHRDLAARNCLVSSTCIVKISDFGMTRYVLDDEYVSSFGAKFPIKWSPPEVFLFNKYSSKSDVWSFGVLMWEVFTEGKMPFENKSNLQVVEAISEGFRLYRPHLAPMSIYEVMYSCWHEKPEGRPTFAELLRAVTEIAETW

With CNS(=O)(=O)c1ccc(N(C)C)c(Nc2ncnc3cc(OC)c(OC)cc23)c1 [compound 7, 3-((6,7-dimethoxyquinazolin-4-yl)amino)-4-(dimethylamino)-N-methylbenzenesulfonamide] as the compound, how does the inhibition at 1 µM (ACVR2B) read?
Its inhibition at 1 µM is 6%.

And the inhibition at 1 µM (AURKA)?
The inhibition at 1 µM was 16%.

What about the inhibition at 1 µM (BLK) of the same compound?
The inhibition at 1 µM was 29%.

What about the inhibition at 1 µM (CAMKK1) of the same compound?
The inhibition at 1 µM was 5%.

What about the inhibition at 1 µM (CLK2) of the same compound?
Its inhibition at 1 µM is 7%.

And the inhibition at 1 µM (DYRK1A)?
The inhibition at 1 µM was 0%.

What about the inhibition at 1 µM (EPHA8) of the same compound?
The inhibition at 1 µM was 0%.

And the inhibition at 1 µM (ERBB3)?
The inhibition at 1 µM was 31%.

And the inhibition at 1 µM (GRK2)?
The inhibition at 1 µM was 65%.

What about the inhibition at 1 µM (HIPK3) of the same compound?
The inhibition at 1 µM was 0%.

What about the inhibition at 1 µM (INSR) of the same compound?
The inhibition at 1 µM was 17%.

What about the inhibition at 1 µM (LTK) of the same compound?
The inhibition at 1 µM was 44%.

And the inhibition at 1 µM (LYN)?
Its inhibition at 1 µM is 0%.

And the inhibition at 1 µM (MRCKA)?
Its inhibition at 1 µM is 0%.

And the inhibition at 1 µM (NEK3)?
The inhibition at 1 µM was 0%.

And the inhibition at 1 µM (PDGFRA)?
Its inhibition at 1 µM is 69%.

And the inhibition at 1 µM (PIK3CA(E545K))?
Its inhibition at 1 µM is 5%.

What about the inhibition at 1 µM (PIK3CG) of the same compound?
The inhibition at 1 µM was 45%.

And the inhibition at 1 µM (PIK4CB)?
The inhibition at 1 µM was 14%.

And the inhibition at 1 µM (PKMYT1)?
The inhibition at 1 µM was 0%.

What about the inhibition at 1 µM (PRKR) of the same compound?
Its inhibition at 1 µM is 0%.

What about the inhibition at 1 µM (RIOK2) of the same compound?
The inhibition at 1 µM was 0%.

What about the inhibition at 1 µM (RIPK2) of the same compound?
Its inhibition at 1 µM is 28%.

And the inhibition at 1 µM (SNARK)?
Its inhibition at 1 µM is 0%.

And the inhibition at 1 µM (TXK)?
The inhibition at 1 µM was 0%.
